Assays:
Assay in all cases: Cell proliferation Ex.3
Assay type in all cases: cell-based
5637 = tested on: 5637
Procedure: (§1) A dose response relationship on cell proliferation was assessed for Compound 13 on 140 tumor cell lines. […] Cells were cultured in the appropriate media. For the assays, cells were seeded in white cell culture-treated flat and clear bottom multiwell plates and incubated at 37° C. overnight before compound was added. […] on the medium, cell plates were equilibrated to room temperature for one hour, CellTiterGlo reagent (Promega) was added and luminescence was measured approximately an hour later using a luminometer. Raw data were converted into percent cell viability relative to the high and low control, which were set to 10000 and 000, respectively.

A2780 = conditions: Homo sapiens
Procedure: as §1

A549 = conditions: Homo sapiens
Procedure: as §1

ACHN = conditions: Homo sapiens
Procedure: as §1

ASPC1 = conditions: Homo sapiens
Procedure: as §1

COLO205 = conditions: Homo sapiens, COLO 205
Procedure: as §1

COLO678 = conditions: Homo sapiens, COLO-678
Procedure: as §1

EFO21 = conditions: Homo sapiens, EFO-21
Procedure: as §1

HT1080 = conditions: Homo sapiens, HT-1080
Procedure: as §1

HT29 = conditions: Homo sapiens, HT-29
Procedure: as §1

IGROV1 = conditions: Homo sapiens, IGROV-1
Procedure: as §1

KASUMI = tested on: KASUMI
Procedure: as §1

MDAMB231 = conditions: Homo sapiens, MDA-MB-231
Procedure: as §1

MIAPACA2 = conditions: Homo sapiens, MIA PaCa-2
Procedure: as §1

NCI-H23 = conditions: Homo sapiens
Procedure: as §1

NCIH358M = conditions: NCI-H358M
Procedure: as §1

NCIH460 = conditions: Homo sapiens, NCI-H460
Procedure: as §1

NCIH82 = conditions: Homo sapiens, NCI-H82
Procedure: as §1

PLCPRF5 = conditions: Homo sapiens, PLC-PRF-5
Procedure: as §1

SF268 = conditions: Homo sapiens, SF-268
Procedure: as §1

SKBR3 = conditions: Homo sapiens, SK-BR-3
Procedure: as §1

SKHEP1 = conditions: Homo sapiens, SK-HEP1
Procedure: as §1

SKMEL28 = conditions: Homo sapiens, SK-MEL-28
Procedure: as §1

SKNAS = conditions: Homo sapiens, SK-N-AS
Procedure: as §1

SNB75 = conditions: Homo sapiens, SNB-75
Procedure: as §1

SU-DHL-6 = conditions: Homo sapiens
Procedure: as §1

SMILES: C#C[C@]1(CO)O[C@@H](n2cc(F)c(N)nc2=O)C[C@@H]1O [compound 9]
- IC50 (5637; 5637, 72 h): > 10 µM
- IC50 (5637; 5637, 120 h): > 10 µM
- IC50 (5637; 5637, 168 h): > 10 µM
- IC50 (A2780; A2780, 72 h): > 10 µM
- IC50 (A2780; A2780, 120 h): > 10 µM
- IC50 (A2780; A2780, 168 h): > 10 µM
- IC50 (A549; A549, 72 h): > 10 µM
- IC50 (A549; A549, 120 h): > 10 µM
- IC50 (A549; A549, 168 h): > 10 µM
- IC50 (ACHN; 72 h): > 10 µM
- IC50 (ACHN; 120 h): 0.91 µM
- IC50 (ACHN; 168 h): 0.94 µM
- IC50 (ASPC1; ASPC1, 72 h): > 10 µM
- IC50 (ASPC1; ASPC1, 120 h): 0.72 µM
- IC50 (ASPC1; ASPC1, 168 h): 0.49 µM
- IC50 (COLO205; COLO205, 72 h): > 10 µM
- IC50 (COLO205; COLO205, 120 h): 1.15 µM
- IC50 (COLO205; COLO205, 168 h): 0.87 µM
- IC50 (COLO678; COLO678, 72 h): > 10 µM
- IC50 (COLO678; COLO678, 120 h): > 10 µM
- IC50 (COLO678; COLO678, 168 h): > 10 µM
- IC50 (EFO21; EFO21, 72 h): > 10 µM
- IC50 (EFO21; EFO21, 120 h): > 10 µM
- IC50 (EFO21; EFO21, 168 h): > 10 µM
- IC50 (HT1080; HT1080, 72 h): > 10 µM
- IC50 (HT1080; HT1080, 120 h): > 10 µM
- IC50 (HT1080; HT1080, 168 h): > 10 µM
- IC50 (HT29; HT29, 72 h): > 10 µM
- IC50 (HT29; HT29, 120 h): > 10 µM
- IC50 (HT29; HT29, 168 h): > 10 µM
- IC50 (IGROV1; IGROV1, 72 h): > 10 µM
- IC50 (IGROV1; IGROV1, 120 h): > 10 µM
- IC50 (IGROV1; IGROV1, 168 h): > 10 µM
- IC50 (KASUMI; 72 h): > 10 µM
- IC50 (KASUMI; 120 h): > 10 µM
- IC50 (KASUMI; 168 h): > 10 µM
- IC50 (MDAMB231; MDAMB231, 72 h): > 10 µM
- IC50 (MDAMB231; MDAMB231, 120 h): > 10 µM
- IC50 (MDAMB231; MDAMB231, 168 h): > 10 µM
- IC50 (MIAPACA2; MIAPACA2, 72 h): > 10 µM
- IC50 (MIAPACA2; MIAPACA2, 120 h): > 10 µM
- IC50 (MIAPACA2; MIAPACA2, 168 h): > 10 µM
- IC50 (NCI-H23; NCI-H23, 72 h): > 10 µM
- IC50 (NCI-H23; NCI-H23, 120 h): > 10 µM
- IC50 (NCI-H23; NCI-H23, 168 h): > 10 µM
- IC50 (NCIH358M; 72 h): > 10 µM
- IC50 (NCIH358M; 120 h): > 10 µM
- IC50 (NCIH358M; 168 h): 0.67 µM
- IC50 (NCIH460; NCIH460, 72 h): > 10 µM
- IC50 (NCIH460; NCIH460, 120 h): > 10 µM
- IC50 (NCIH460; NCIH460, 168 h): > 10 µM
- IC50 (NCIH82; NCIH82, 72 h): > 10 µM
- IC50 (NCIH82; NCIH82, 120 h): 9.1 µM
- IC50 (NCIH82; NCIH82, 168 h): > 10 µM
- IC50 (PLCPRF5; PLCPRF5, 72 h): > 10 µM
- IC50 (PLCPRF5; PLCPRF5, 120 h): > 10 µM
- IC50 (PLCPRF5; PLCPRF5, 168 h): > 10 µM
- IC50 (SF268; SF268, 72 h): > 10 µM
- IC50 (SF268; SF268, 120 h): > 10 µM
- IC50 (SF268; SF268, 168 h): > 10 µM
- IC50 (SKBR3; SKBR3, 72 h): 1.45 µM
- IC50 (SKBR3; SKBR3, 120 h): 0.96 µM
- IC50 (SKBR3; SKBR3, 168 h): 0.37 µM
- IC50 (SKHEP1; SKHEP1, 72 h): > 10 µM
- IC50 (SKHEP1; SKHEP1, 120 h): > 10 µM
- IC50 (SKHEP1; SKHEP1, 168 h): > 10 µM
- IC50 (SKMEL28; SKMEL28, 72 h): > 10 µM
- IC50 (SKMEL28; SKMEL28, 120 h): > 10 µM
- IC50 (SKMEL28; SKMEL28, 168 h): > 10 µM
- IC50 (SKNAS; 72 h): > 10 µM
- IC50 (SKNAS; 120 h): > 10 µM
- IC50 (SKNAS; 168 h): > 10 µM
- IC50 (SNB75; SNB75, 72 h): > 10 µM
- IC50 (SNB75; SNB75, 120 h): > 10 µM
- IC50 (SNB75; SNB75, 168 h): > 10 µM
- IC50 (SU-DHL-6; SU-DHL-6, 72 h): > 10 µM
- IC50 (SU-DHL-6; SU-DHL-6, 120 h): 4.99 µM
- IC50 (SU-DHL-6; SU-DHL-6, 168 h): 1.3 µM
